The values that follow come from patent US12673975B2, “Cyclic peptide, cell scaffold material, cell separating material, and medium” (FUJIFILM Corporation, priority 2019, dated 2026).

Read-outs that look alike come from different tables or passages of the source. Starred links: 1 amine or outer side, 2 acyl side, 3 side chain; linkers in the order of their positions; H or OH if unused. Positions of bridges follow the written chain, without caps; N, C: chain ends. Non-standard residues stand in square brackets, D forms with d. Residues, ends and D or L forms follow the SMILES beside them. hCys = N[C@@H](CCS)C(=O)O; Dab = NCC[C@H](N)C(=O)O; X1 = O=C(C[*:2])[*:1]; X2 = O=C(C[*:1])[*:2]

One data set addresses human integrin αvβ5 (Homo sapiens, UniProt P06756+P18084). Nature of the data set: Evaluation of integrin binding property (surface plasmon resonance, Biacore 3000, immobilized cyclic peptide). The essentials: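 Human αvβ5 (30-1,000 nM) flowed for 10 min at 25 °C over immobilized cyclic peptide in 20 mM HEPES, 150 mM NaCl, 5 mM MgCl2, pH 7.4, followed by 30 min running buffer and 0.5 M EDTA regeneration. Dissociation constant from peptide minus unimmobilized channel, scored into standard grades.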

A short description of data set [1]: Evaluation of molecule stability (alkali treatment, residual rate by LC/MS). Type of data set: physicochemical. The following applies: for Performance evaluation: Stability (residual rate of cyclic peptide after alkali treatment): 500 μM peptide aqueous solution plus equivalent of 1 M sodium hydroxide, 15° C., 3 hours, LC/MS peak area; for Stability (molecule stability, residual rate of the cyclic peptide rank): alkali treatment, residual rate by LC/MS. The procedure, abridged:
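Stability read as percent of summed LC/MS peak area remaining versus untreated peptide (C18, 45 °C, 10 mM ammonium formate pH 3, ESI positive/negative). Treatment: 500 μM peptide in water plus an equivalent of 1 M NaOH, 15 °C for 3 hours.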

The mark [2] stands for this setting: SPR, 25° C., HEPES buffer with 5 mM magnesium chloride, integrin 30-1,000 nM, read-out: Performance evaluation: Binding activity (dissociation constant between the cyclic peptide and human integrin αvβ5).
[3] abbreviates: surface plasmon resonance, immobilized cyclic peptide, human integrin αvβ5, read-out: Binding activity (integrin binding property, dissociation constant rank).

Sequence of human integrin αvβ5 (P06756 31-1048): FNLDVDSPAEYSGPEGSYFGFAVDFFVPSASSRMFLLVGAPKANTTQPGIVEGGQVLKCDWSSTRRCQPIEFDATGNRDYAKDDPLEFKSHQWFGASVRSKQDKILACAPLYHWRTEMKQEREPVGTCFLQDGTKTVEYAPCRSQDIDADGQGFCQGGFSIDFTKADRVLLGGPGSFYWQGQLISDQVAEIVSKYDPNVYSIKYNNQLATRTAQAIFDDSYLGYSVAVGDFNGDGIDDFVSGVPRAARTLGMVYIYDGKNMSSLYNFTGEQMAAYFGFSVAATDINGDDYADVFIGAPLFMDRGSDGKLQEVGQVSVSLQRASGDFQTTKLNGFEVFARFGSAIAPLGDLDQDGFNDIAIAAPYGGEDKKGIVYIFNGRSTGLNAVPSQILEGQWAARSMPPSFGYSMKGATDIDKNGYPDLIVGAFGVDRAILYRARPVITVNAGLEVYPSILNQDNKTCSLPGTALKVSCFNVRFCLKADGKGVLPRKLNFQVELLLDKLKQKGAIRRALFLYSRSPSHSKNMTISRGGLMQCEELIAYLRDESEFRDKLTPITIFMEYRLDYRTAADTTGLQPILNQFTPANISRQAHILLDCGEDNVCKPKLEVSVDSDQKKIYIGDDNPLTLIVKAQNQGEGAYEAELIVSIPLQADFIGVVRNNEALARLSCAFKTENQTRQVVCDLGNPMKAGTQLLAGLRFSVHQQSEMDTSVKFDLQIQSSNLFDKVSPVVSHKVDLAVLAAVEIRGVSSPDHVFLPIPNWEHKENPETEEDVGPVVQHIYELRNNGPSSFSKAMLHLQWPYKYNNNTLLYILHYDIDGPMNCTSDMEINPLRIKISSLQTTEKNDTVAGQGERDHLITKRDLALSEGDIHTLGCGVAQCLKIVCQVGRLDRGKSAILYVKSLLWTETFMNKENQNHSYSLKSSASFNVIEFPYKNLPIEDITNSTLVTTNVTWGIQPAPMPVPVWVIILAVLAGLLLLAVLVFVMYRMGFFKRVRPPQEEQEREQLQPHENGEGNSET
Sequence of human integrin αvβ5 (P18084 24-799): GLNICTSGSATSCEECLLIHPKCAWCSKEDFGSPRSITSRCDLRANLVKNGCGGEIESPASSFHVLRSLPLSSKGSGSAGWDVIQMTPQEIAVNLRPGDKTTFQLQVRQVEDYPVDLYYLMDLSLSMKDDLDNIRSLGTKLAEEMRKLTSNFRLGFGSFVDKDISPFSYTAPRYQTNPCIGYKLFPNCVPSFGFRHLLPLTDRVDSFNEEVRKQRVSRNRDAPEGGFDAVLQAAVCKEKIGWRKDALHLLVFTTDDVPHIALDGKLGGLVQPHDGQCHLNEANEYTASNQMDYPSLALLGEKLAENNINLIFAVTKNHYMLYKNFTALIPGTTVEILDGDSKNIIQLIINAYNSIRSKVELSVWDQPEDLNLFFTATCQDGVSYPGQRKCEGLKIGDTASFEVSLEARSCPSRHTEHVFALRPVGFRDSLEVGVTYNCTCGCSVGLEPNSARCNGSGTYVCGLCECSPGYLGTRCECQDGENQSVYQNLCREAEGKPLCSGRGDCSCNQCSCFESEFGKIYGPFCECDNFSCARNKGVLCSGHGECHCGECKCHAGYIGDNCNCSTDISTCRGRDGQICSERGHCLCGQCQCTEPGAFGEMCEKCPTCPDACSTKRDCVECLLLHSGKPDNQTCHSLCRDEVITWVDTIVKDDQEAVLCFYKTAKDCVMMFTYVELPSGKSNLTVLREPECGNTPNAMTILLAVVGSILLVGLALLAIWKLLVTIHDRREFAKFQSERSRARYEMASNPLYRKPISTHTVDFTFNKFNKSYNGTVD

With `CC[C@H](C)[C@@H]1NC(=O)[C@@H](NC(=O)[C@H](CCCCN)NC(=O)[C@H](CCCCN)NC(=O)[C@@H](N)CCCCN)CCSCC(=O)NCC[C@@H](C(=O)N[C@@H](C)C(=O)O)NC(=O)[C@H](CCCNC(=N)N)NC(=O)[C@H](Cc2ccccc2)NC(=O)[C@H](CC(N)=O)NC(=O)[C@H](CC(=O)O)NC(=O)CNC(=O)[C@H](CCCNC(=N)N)NC(=O)[C@@H]2CCCN2C1=O` [Cyclic peptide 3, KKK-(Hcy)-IPRGDNFR(Dab(acetyl))A] (H-KKK[hCys]IPRGDNFR[Dab]A-OH; linker 4-13 via X2), the Kd on human integrin αvβ5 (setting [2]) was below 0.05 µM. In addition, the “Performance evaluation: Stability (residual rate of cyclic peptide after alkali treatment)” value in data set [1] is “A (The residual rate of the cyclic peptide is 70% or more.)”.

In the case of `CC[C@H](C)[C@@H]1NC(=O)[C@@H](NC(=O)[C@H](C)N)CCSCC(=O)NCC[C@@H](C(=O)N[C@@H](C)C(=O)O)NC(=O)[C@H](C)NC(=O)[C@H](Cc2ccccc2)NC(=O)[C@H](CO)NC(=O)[C@H](CC(=O)O)NC(=O)CNC(=O)[C@H](CCCNC(=N)N)NC(=O)[C@@H]2CCCN2C1=O` [Cyclic peptide 126, A-(Hcy)-IPRGDSFA(Dab(acetyl))A] (H-A[hCys]IPRGDSFA[Dab]A-OH; linker 2-11 via X2), the Kd on human integrin αvβ5 (setting [3]) was below 0.05 µM. In addition, in data set [1], the “Stability (molecule stability, residual rate of the cyclic peptide rank)” value is on record as “A (The residual rate of the cyclic peptide is 70% or more.)”.

As to `CC[C@H](C)[C@@H]1NC(=O)[C@@H](NC(=O)[C@H](CCCCN)NC(=O)[C@H](CCCCN)NC(=O)[C@@H](N)CCCCN)CCSCC(=O)NCC[C@@H](C(=O)O)NC(=O)[C@H](CCCNC(=N)N)NC(=O)[C@H](Cc2ccccc2)NC(=O)[C@H](CC(N)=O)NC(=O)[C@H](CC(=O)O)NC(=O)CNC(=O)[C@H](CCCNC(=N)N)NC(=O)[C@@H]2CCCN2C1=O` [Cyclic peptide 11, KKK-(Hcy)-IPRGDNFR(Dab(acetyl))] (H-KKK[hCys]IPRGDNFR[Dab]-OH; linker 4-13 via X2), on human integrin αvβ5 (setting [2]), the Kd is below 0.05 µM. For the same compound, the “Performance evaluation: Stability (residual rate of cyclic peptide after alkali treatment)” value in data set [1] is listed as “A (The residual rate of the cyclic peptide is 70% or more.)”.

On to `CC(C)[C@@H]1NC(=O)[C@@H](NC(=O)[C@H](CCCCN)NC(=O)[C@H](CCCCN)NC(=O)[C@@H](N)CCCCN)CCNC(=O)CSC[C@@H](C(=O)O)NC(=O)[C@H](Cc2ccccc2)NC(=O)[C@H](CC(N)=O)NC(=O)[C@H](CC(=O)O)NC(=O)CNC(=O)[C@H](CCCNC(=N)N)NC(=O)[C@@H]2CCCN2C1=O` [Cyclic peptide 143, KKK(Dab(acetyl))VPRGDNF(C)] (H-KKK[Dab]VPRGDNFC-OH; linker 4-12 via X1), for which the Kd at human integrin αvβ5 (setting [3]) was below 0.05 µM. Further, in data set [1], the “Stability (molecule stability, residual rate of the cyclic peptide rank)” value was “C (The residual rate of the cyclic peptide is 30% or more and less than 50%.)”.
